Data taken from PubChem BioAssay (NCI).
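48-hour exposure; five concentrations; linearly interpolated endpoints. The concentration for 50% growth inhibition is given as GI50. The concentration for full growth arrest is given as TGI.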

Legend:
Experiment in all cases: growth of human tumour cells (NCI), 48 h
786-0 renal = test system: 786-0 renal
A549 NSCLC = test system: A549 NSCLC
ACHN renal = test system: ACHN renal
BT-549 breast = test system: BT-549 breast
CAKI-1 renal = test system: CAKI-1 renal
CCRF-CEM leukemia = test system: CCRF-CEM leukemia
COLO 205 colon = test system: COLO 205 colon
DU-145 prostate = test system: DU-145 prostate
EKVX NSCLC = test system: EKVX NSCLC
HCT-116 colon = test system: HCT-116 colon
HCT-15 colon = test system: HCT-15 colon
HOP-62 NSCLC = test system: HOP-62 NSCLC
HOP-92 NSCLC = test system: HOP-92 NSCLC
HS 578T breast = test system: HS 578T breast
HT29 colon = test system: HT29 colon
IGROV1 ovarian = test system: IGROV1 ovarian
K-562 leukemia = test system: K-562 leukemia
KM12 colon = test system: KM12 colon
LOX IMVI melanoma = test system: LOX IMVI melanoma
M14 melanoma = test system: M14 melanoma
MALME-3M melanoma = test system: MALME-3M melanoma
MCF7 breast = test system: MCF7 breast
MDA-MB-231 breast = test system: MDA-MB-231 breast
MDA-MB-435 = test system: MDA-MB-435
MOLT-4 leukemia = test system: MOLT-4 leukemia
NCI-H226 lung = test system: NCI-H226 lung
NCI-H23 lung = test system: NCI-H23 lung
NCI-H460 lung = test system: NCI-H460 lung
NCI-H522 lung = test system: NCI-H522 lung
NCI/ADR-RES ovarian = test system: NCI/ADR-RES ovarian
OVCAR-3 ovarian = test system: OVCAR-3 ovarian
OVCAR-4 ovarian = test system: OVCAR-4 ovarian
OVCAR-5 ovarian = test system: OVCAR-5 ovarian
OVCAR-8 ovarian = test system: OVCAR-8 ovarian
PC-3 prostate = test system: PC-3 prostate
RPMI-8226 leukemia = test system: RPMI-8226 leukemia
RXF 393 renal = test system: RXF 393 renal
SF-268 CNS = test system: SF-268 CNS
SF-295 CNS = test system: SF-295 CNS
SF-539 CNS = test system: SF-539 CNS
SK-MEL-2 melanoma = test system: SK-MEL-2 melanoma
SK-MEL-28 melanoma = test system: SK-MEL-28 melanoma
SK-MEL-5 melanoma = test system: SK-MEL-5 melanoma
SK-OV-3 ovarian = test system: SK-OV-3 ovarian
SN12C renal = test system: SN12C renal
SNB-19 CNS = test system: SNB-19 CNS
SNB-75 CNS = test system: SNB-75 CNS
SR leukemia = test system: SR leukemia
SW-620 colon = test system: SW-620 colon
T-47D breast = test system: T-47D breast
TK-10 renal = test system: TK-10 renal
U251 CNS = test system: U251 CNS
UACC-257 melanoma = test system: UACC-257 melanoma
UACC-62 melanoma = test system: UACC-62 melanoma
UO-31 renal = test system: UO-31 renal
A498 renal = test system: A498 renal
HCC-2998 colon = test system: HCC-2998 colon
HL-60(TB) leukemia = test system: HL-60(TB) leukemia

C=C1C[C@H](O)[C@H]2C(C[Se]c3ccccc3)C(=O)O[C@@H]2[C@H]2[C@H](C)C(O)C[C@@H]12 (some centres undefined)
TGI (786-0 renal): 99.3 µM | TGI (A549 NSCLC): > 100 µM | TGI (ACHN renal): 76.3 µM | TGI (BT-549 breast): 98.4 µM | TGI (CAKI-1 renal): > 100 µM | TGI (CCRF-CEM leukemia): > 100 µM | TGI (COLO 205 colon): > 100 µM | TGI (DU-145 prostate): > 100 µM | TGI (EKVX NSCLC): > 100 µM | TGI (HCT-116 colon): 56.4 µM | TGI (HCT-15 colon): 33.9 µM | TGI (HOP-62 NSCLC): > 100 µM | TGI (HOP-92 NSCLC): > 100 µM | TGI (HS 578T breast): > 100 µM | TGI (HT29 colon): > 100 µM | TGI (IGROV1 ovarian): 93.1 µM | TGI (K-562 leukemia): > 100 µM | TGI (KM12 colon): > 100 µM | TGI (LOX IMVI melanoma): 51.4 µM | TGI (M14 melanoma): > 100 µM | TGI (MALME-3M melanoma): > 100 µM | TGI (MCF7 breast): > 100 µM | TGI (MDA-MB-231 breast): 38.1 µM | TGI (MDA-MB-435): > 100 µM | TGI (MOLT-4 leukemia): > 100 µM | TGI (NCI-H226 lung): 83.9 µM | TGI (NCI-H23 lung): 40.7 µM | TGI (NCI-H460 lung): > 100 µM | TGI (NCI-H522 lung): 38.1 µM | TGI (NCI/ADR-RES ovarian): 51.6 µM | TGI (OVCAR-3 ovarian): 98.6 µM | TGI (OVCAR-4 ovarian): > 100 µM | TGI (OVCAR-5 ovarian): 55 µM | TGI (OVCAR-8 ovarian): > 100 µM | TGI (PC-3 prostate): > 100 µM | TGI (RPMI-8226 leukemia): 98 µM | TGI (RXF 393 renal): 50.2 µM | TGI (SF-268 CNS): > 100 µM | TGI (SF-295 CNS): > 100 µM | TGI (SF-539 CNS): > 100 µM | TGI (SK-MEL-2 melanoma): > 100 µM | TGI (SK-MEL-28 melanoma): > 100 µM | TGI (SK-MEL-5 melanoma): > 100 µM | TGI (SK-OV-3 ovarian): > 100 µM | TGI (SN12C renal): 65 µM | TGI (SNB-19 CNS): > 100 µM | TGI (SNB-75 CNS): > 100 µM | TGI (SR leukemia): > 100 µM | TGI (SW-620 colon): 94.8 µM | TGI (T-47D breast): > 100 µM | TGI (TK-10 renal): > 100 µM | TGI (U251 CNS): 30.8 µM | TGI (UACC-257 melanoma): > 100 µM | TGI (UACC-62 melanoma): 64.1 µM | TGI (UO-31 renal): 63.7 µM

COc1cc(C(=O)/C=C/c2cc(-c3cc(OC)c(OC)c(OC)c3)n[nH]2)cc(OC)c1OC
GI50 (786-0 renal): 1.56 µM | TGI (786-0 renal): 3.25 µM | GI50 (A498 renal): 1.61 µM | TGI (A498 renal): 3.59 µM | GI50 (A549 NSCLC): 2.72 µM | TGI (A549 NSCLC): 12.1 µM | GI50 (ACHN renal): 1.62 µM | TGI (ACHN renal): 3.01 µM | GI50 (BT-549 breast): 1.57 µM | TGI (BT-549 breast): 2.96 µM | GI50 (CAKI-1 renal): 2.58 µM | TGI (CAKI-1 renal): 10.9 µM | GI50 (COLO 205 colon): 1.75 µM | TGI (COLO 205 colon): 3.13 µM | GI50 (HCC-2998 colon): 1.83 µM | TGI (HCC-2998 colon): 3.39 µM | GI50 (HCT-116 colon): 1.31 µM | TGI (HCT-116 colon): 2.59 µM | GI50 (HCT-15 colon): 1.5 µM | TGI (HCT-15 colon): 3.29 µM | GI50 (HL-60(TB) leukemia): 1.93 µM | TGI (HL-60(TB) leukemia): 5.52 µM | GI50 (HOP-62 NSCLC): 1.46 µM | TGI (HOP-62 NSCLC): 2.89 µM | GI50 (HOP-92 NSCLC): 0.186 µM | TGI (HOP-92 NSCLC): 1.02 µM | GI50 (HS 578T breast): 2.68 µM | TGI (HS 578T breast): 53.9 µM | GI50 (HT29 colon): 1.79 µM | TGI (HT29 colon): 3.37 µM | GI50 (IGROV1 ovarian): 3.14 µM | TGI (IGROV1 ovarian): 10.2 µM | GI50 (K-562 leukemia): 2.96 µM | TGI (K-562 leukemia): > 100 µM | GI50 (KM12 colon): 1.49 µM | TGI (KM12 colon): 2.93 µM | GI50 (LOX IMVI melanoma): 1.52 µM | TGI (LOX IMVI melanoma): 2.91 µM | GI50 (M14 melanoma): 1.79 µM | TGI (M14 melanoma): 3.32 µM | GI50 (MALME-3M melanoma): 1.86 µM | TGI (MALME-3M melanoma): 4.09 µM | GI50 (MCF7 breast): 0.646 µM | TGI (MCF7 breast): 2.07 µM | GI50 (MDA-MB-231 breast): 1.52 µM | TGI (MDA-MB-231 breast): 3.8 µM | GI50 (MDA-MB-435): 1.49 µM | TGI (MDA-MB-435): 2.95 µM | GI50 (MOLT-4 leukemia): 2.32 µM | TGI (MOLT-4 leukemia): 8.95 µM | GI50 (NCI-H23 lung): 3.04 µM | TGI (NCI-H23 lung): 9.9 µM | GI50 (NCI-H460 lung): 1.89 µM | TGI (NCI-H460 lung): 4.33 µM | GI50 (NCI-H522 lung): 0.521 µM | TGI (NCI-H522 lung): 1.7 µM | GI50 (NCI/ADR-RES ovarian): 3.47 µM | TGI (NCI/ADR-RES ovarian): 21.4 µM | GI50 (OVCAR-3 ovarian): 1.75 µM | TGI (OVCAR-3 ovarian): 3.18 µM | GI50 (OVCAR-4 ovarian): 1.45 µM | TGI (OVCAR-4 ovarian): 2.76 µM | GI50 (OVCAR-5 ovarian): 1.64 µM | TGI (OVCAR-5 ovarian): 3.12 µM | GI50 (OVCAR-8 ovarian): 1.58 µM | TGI (OVCAR-8 ovarian): 3.28 µM | GI50 (PC-3 prostate): 1.47 µM | TGI (PC-3 prostate): 3.29 µM | GI50 (RPMI-8226 leukemia): 0.318 µM | TGI (RPMI-8226 leukemia): 2.06 µM | GI50 (RXF 393 renal): 1.26 µM | TGI (RXF 393 renal): 2.67 µM | GI50 (SF-268 CNS): 1.94 µM | TGI (SF-268 CNS): 4.58 µM | GI50 (SF-539 CNS): 1.29 µM | TGI (SF-539 CNS): 2.83 µM | GI50 (SK-MEL-2 melanoma): 1.96 µM | TGI (SK-MEL-2 melanoma): 4.04 µM | GI50 (SK-MEL-28 melanoma): 1.82 µM | TGI (SK-MEL-28 melanoma): 3.33 µM | GI50 (SK-MEL-5 melanoma): 1.57 µM | TGI (SK-MEL-5 melanoma): 2.94 µM | GI50 (SK-OV-3 ovarian): 3.2 µM | TGI (SK-OV-3 ovarian): 11.1 µM | GI50 (SN12C renal): 1.47 µM | TGI (SN12C renal): 2.97 µM | GI50 (SNB-19 CNS): 1.66 µM | TGI (SNB-19 CNS): 3.69 µM | GI50 (SR leukemia): 0.398 µM | TGI (SR leukemia): > 100 µM | GI50 (SW-620 colon): 1.59 µM | TGI (SW-620 colon): 3.08 µM | GI50 (T-47D breast): 1.13 µM | TGI (T-47D breast): 2.57 µM | GI50 (TK-10 renal): 1.46 µM | TGI (TK-10 renal): 2.8 µM | GI50 (U251 CNS): 1.54 µM | TGI (U251 CNS): 2.96 µM | GI50 (UACC-257 melanoma): 1.57 µM | TGI (UACC-257 melanoma): 2.99 µM | GI50 (UACC-62 melanoma): 1.78 µM | TGI (UACC-62 melanoma): 3.68 µM | GI50 (UO-31 renal): 1.19 µM | TGI (UO-31 renal): 2.48 µM
